According to article PMC12864978, “Covalent modification of a glutamic acid inspired by HaloTag technology” (Nature Communications, 2026):
“Also recorded” adds a separate entry of the source.

Key:
[1] = biological target: T1, PDEδ in the presence of Arl2•GppNHp (Homo sapiens, UniProt O43924); test: Competitive fluorescence polarisation assay in the presence of Arl2•GppNHp; assay type: binding
T1 construct: His tag; made in house; host or cells: Escherichia coli Rosetta (BL21DE3), pET plasmids
Text: (§1) Data are presented as mean ± s.e.m.

[2] = GSH adduct formation (stability in the presence of GSH); assay type: physicochemical; conditions: phosphate buffer with 10 mM GSH; 10-fold excess of GSH at 10 mM, phosphate buffer pH 7.4, 37 °C; read-out: half-life for GSH adduct formation t1/2 GSH (converted)
Experimental: Compound (1 mM) was incubated with the respective buffers (HEPES 20 mM, 150 mM NaCl, pH = 7.5; 0.2 M sodium acetate buffer, pH = 5.6; 0.2 M sodium citrate buffer, pH = 6.2; 0.2 M potassium phosphate buffer, pH = 7.4, 1 mM EDTA, with or without 10 mM GSH), with 1% DMSO adjusted for all conditions. […] Per cent (%) compound remaining in the solution was estimated by the ratio of areas under the curve, and data plotted were fitted to pseudo-1st kinetics in the calculation of rate constants (k) and half-lives (t1/2), where k is the negative slope of a linear regression of In (% compound remaining) over time. Half-lives (t1/2) in respective buffers and half-lives for GSH adduct formation (t1/2 GSH) were calculated with the following equations:1 t1/2=In2/k 2 kGSH=ktotalconsumptioninphosphatebufferinpresenceofGSH−k(phosphatebufferinabsenceofGSH) 3 t1/2GSH=In2/k(GSH) […]
a, Percentage (%) of compound remaining was monitored by HPLC-MS and data was fitted to pseudo-first kinetics in calculation of rate constants (k) and half-lives (t1/2) in respective buffers, where k is the negative slope of a linear regression of In (% compound remaining) over time and t 1/2 = In2/k. Initial […]
Initial GSH concentration =

[3] = system: panel of human cell lines; test: Cytotoxicity screening in a panel of human cell lines; assay type: cell-based; conditions: concentrations up to 25 µM
Experimental: Real-time cell analysis (RTCA) was conducted using an Incucyte S3 live-cell analysis system (Sartorius AG, Germany). Adherent cell lines were seeded at 5 × 10³ cells per well in 96-well plates containing 100 µl of culture medium and incubated overnight at 37 °C with 5% CO₂. Following attachment overnight, the medium was replaced with fresh medium containing test compounds, with all conditions adjusted to contain 0.5% DMSO. […] Phase-contrast images (2 images per well) were automatically captured at 2-h intervals until control wells (DMSO-treated) reached full confluency. Cell growth was quantified using the instrument’s integrated Basic Analyser module by applying a confluence mask to calculate the percentage of phase area confluence. For dose-response assessment, confluence values at 72 h post-treatment were normalised to the DMSO control and analysed using GraphPad Prism 9.5.1 (GraphPad Software, USA). Dose-response curves were generated and fitted via four-parameter variable slope nonlinear regression to determine cellular IC₅₀ values.
representative of biological replicates n = 3.
comet images for each condition were shown.
time live-cell imaging by Incucyte.
Source data are provided as […]

[4] = biological target: T2, PDEδ (Homo sapiens, UniProt O43924); test: Differential scanning fluorimetry (NanoDSF); assay type: binding; parameters: His tag; made in house; host or cells: Escherichia coli Rosetta (BL21DE3), pET plasmids
Experimental: Afterwards, a sample of the solution was cooled down to room temperature and was loaded onto a capillary, followed by the measurement of fluorescence intensities at 350 nm and 330 nm from 20 °C up to 90 °C (with a rate of increment of 1 °C/min) using the Prometheus Panta device (NanoTemper® Technologies, DE).

[5] = biological target: T2, PDEδ; test: Covalent modification of PDEδ by MALDI mass spectrometry; assay type: binding; parameters: His tag; made in house; host or cells: Escherichia coli Rosetta (BL21DE3), pET plasmids
Experimental: (§2) The solution was briefly centrifuged before a sample was taken at the designated time for analysis by MALDI. […] Mass spectra were obtained over the m/z range 15,000–25,000 using a Bruker UltrafleXtreme XIAL DI-TOF/TOF mass spectrometer. Percentages of covalent adduct formation were estimated by the relative intensity of the respective peaks in MALDI spectra.
1. Supplementary Figures and Tables
PDEδ (20 µM) was incubated with compounds (60 µM) in HEPES
Percentages of covalent adduct formation were estimated by the relative intensity of the respective peaks in MALDI spectra. Data are presented as mean ± s.e.m.
Apparent pseudo -first order kobs was estimated by percentages of covalent adduct formation at 2 hours by MALDI. Plot of kobs (h-1) against concentration (µM) was fitted by GraphPad […]
Prism Michaelis-Menten model and separate values for kinact and KI were obtained to calculate apparent […]
PDEδ (20 µM) was incubated with
as §1
HEPES buffer, n = 3 for the rest). One-way ANOVA with matched time-points, with Geisser-

[6] = biological target: T1, PDEδ in the presence of Arl2•GppNHp; test: Kinetics of covalent modification of PDEδ by MALDI in the presence of Arl2•GppNHp; assay type: binding; conditions: PDEδ: Arl2•GppNHp = 1:1, 3 eq. of 6a
Text: as §1, §2

[7] = biological target: PDEδ in Jurkat cell lysates (Homo sapiens, UniProt O43924); test: In-lysate CETSA (immunoblot readout); assay type: binding; parameters: host or cells: Jurkat
[8] = system: DNA in Jurkat cells; test: Comet assay (DNA alkylation); conditions: 10 µM
[9] = biological target: T2, PDEδ; test: In-cell covalent modification of PDEδ (immunoblot); conditions: 2 h
[10] = Mouse liver microsomal stability; assay type: in vitro ADME
Text: plotted as mean ± standard deviation, representative of 3 technical replicates ( N = 3). Unpaired, two-
Data were plotted as mean ± standard deviation, representative of 3 technical replicates in the presence

SMILES: Cc1ccc(-n2nc3c(=O)n(CCCCS(=O)(=O)N(CCc4cccc(CCBr)c4)CC4CCNCC4)nc(C)c3c2C)cc1 [6a]
- IC50 ([1]; 37 °C, PDEδ 40 nM, Arl2•GppNHp 40 nM, FA probe 24 nM): 10.1 ± 2.6 nM
- IC50 ([1]; pre-incubated with PDEδ at 37 °C overnight before addition of Arl2•GppNHp): 4.8 ± 1.5 nM
- half-life at 1 mM [2]: 43.1 days
- general cytotoxicity [3]: no general toxicity; also recorded: not observed
- ΔTm (NanoDSF) ([4]; 2 h incubation): 13.5 ± 0.2 °C
- ΔTm at 60 µM ([4]; PDEδ 20 µM, compound 60 µM, mean ± s.d., Fig. 2e, read-out: melting temperature shift ΔTm (NanoDSF)): 15.5 ± 1 °C
- KI ([5]; Michaelis-Menten fit of kobs): 464900 nM
- covalent modification of PDEδ in different solvents ([5]; buffers of various pH, 8 h and 24 h): pH-independent
- % labelling at 24 h ([5]; representative MALDI spectrum, Fig. 2c): 100%
- rate of covalent PDEδ modification in the presence of Arl2•GppNHp [6]: comparable rate
- ΔTm at 10 µM ([7]; 15 min at 37 °C): 11.8 ± 0.2 °C
- ΔTm at 10 µM ([7]; 2 h at 37 °C): 22.1 ± 1 °C
- off-target effects such as DNA alkylation (Comet assay) [8]: not observed
- in-cell covalent modification of PDEδ [9]: covalent binding of DeltaTag (6a) to PDEδ within 2 h
- CLhep predicted ([10]; liver microsomes, translated from intrinsic clearance, mouse, read-out: in vivo clearance (simplified well-stirred model) (converted)): ~66.7 mL/min/kg
- microsomal stability in the absence of co-factor NADPH ([10]; mouse liver microsomes): metabolically stable
- microsomal CLint ([10]; mouse liver microsomes 0.5 mg/ml, + NADPH, read-out: intrinsic clearance): 117 µL/min/mg
- time to almost complete metabolism ([10]; mouse, liver microsomes, + NADPH): ≤ 50 min
- half-life ([10]; mouse, liver microsomes, + NADPH, read-out: half-life T1/2 in mouse liver microsomes): 0.00819 days
